The values that follow come from ChEMBL document CHEMBL1153382 (J Med Chem, 2009).

Each structure is given as a SMILES string. Calls of active or inactive are those of the source. No cut-off for these calls is given here.

T1 sequence (P28223 whole entry): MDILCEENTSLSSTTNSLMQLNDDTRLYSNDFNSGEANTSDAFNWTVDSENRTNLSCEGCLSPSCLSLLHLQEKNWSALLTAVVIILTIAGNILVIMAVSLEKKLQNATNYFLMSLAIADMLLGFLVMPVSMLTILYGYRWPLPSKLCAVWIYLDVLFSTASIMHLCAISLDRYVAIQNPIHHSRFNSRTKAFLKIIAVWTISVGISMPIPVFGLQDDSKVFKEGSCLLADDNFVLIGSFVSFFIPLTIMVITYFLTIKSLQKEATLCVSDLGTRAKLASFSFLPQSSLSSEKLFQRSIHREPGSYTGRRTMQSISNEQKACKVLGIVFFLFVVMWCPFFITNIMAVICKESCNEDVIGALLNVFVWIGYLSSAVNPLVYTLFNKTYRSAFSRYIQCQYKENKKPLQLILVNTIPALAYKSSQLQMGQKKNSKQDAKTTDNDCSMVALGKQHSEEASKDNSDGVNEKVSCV

One test has as its target T1, 5-hydroxytryptamine receptor 2A (Homo sapiens, UniProt P28223). Kind of test: Agonist activity at human 5HT2A receptor expressed in HEK293 cells at 10 uM assessed as calcium flux by FLIPR assay relative to serotonin. It is filed as functional, cell-based.
The term Emax denotes the maximal effect, on the per cent scale that the assay sets. With `NC[C@H]1C[C@@H]1c1ccccc1`, the Emax worked out at 79%.

Consider `CN(C)[C@H]1C[C@@H]1c1ccccc1` (racemic), for which the Emax is under 12%.

Turning to `CN[C@H]1C[C@@H]1c1ccccc1` (racemic), the Emax was under 12%.

Regarding `c1ccc(CN[C@H]2C[C@@H]2c2ccccc2)cc1` (racemic), the Emax was under 12%.

As to `N#Cc1ccc(-c2cccc([C@H]3C[C@@H]3CN)c2)cc1` (relative stereo), the Emax is under 12%.

Regarding `C#Cc1cccc([C@H]2C[C@@H]2CN)c1` (relative stereo), the Emax was determined as 42%.

On to `NC[C@H]1C[C@@H]1c1cccc(-c2cc3ccccc3o2)c1` (relative stereo), for which the Emax is under 12%.

On to `NC[C@H]1C[C@@H]1c1cccc(C#CCCCCO)c1` (relative stereo), for which the Emax is under 12%.

As for `NC[C@H]1C[C@@H]1c1ccc(-c2ccc(F)cc2)cc1` (relative stereo), the Emax was under 12%.

For the molecule `NC[C@H]1C[C@@H]1c1ccc(-c2ccco2)cc1` (relative stereo), the Emax is under 12%.

With `NC[C@H]1C[C@@H]1c1ccccc1C#CCCCCO` (relative stereo), the Emax was under 12%.

With `NC[C@H]1C[C@@H]1c1ccccc1-c1ccc(F)cc1` (relative stereo), the Emax was under 12%.

For a further test, the target named is T1, 5-hydroxytryptamine receptor 2A. Briefly: Agonist activity at human 5HT2A receptor expressed in HEK293 cells assessed as calcium flux by FLIPR assay. It is filed as functional, cell-based. Background: Calcium flux is commonly read through the fluorescence of an indicator in the cells.
A word on the EC50: it is the concentration needed to bring the measured effect to its halfway point. For `NC[C@H]1C[C@@H]1c1ccccc1`, the EC50 came to 1400 nM.

With `CN(C)[C@H]1C[C@@H]1c1ccccc1` (racemic), the result was inactive.

As for `CN[C@H]1C[C@@H]1c1ccccc1` (racemic), the result was inactive.

Consider `c1ccc(CN[C@H]2C[C@@H]2c2ccccc2)cc1` (racemic), for which the result was inactive.

For the molecule `N#Cc1ccc(-c2cccc([C@H]3C[C@@H]3CN)c2)cc1` (relative stereo), the outcome was inactive.

`C#Cc1cccc([C@H]2C[C@@H]2CN)c1` (relative stereo): the 50% effective concentration (EC50) is over 10000 nM.

`NC[C@H]1C[C@@H]1c1cccc(-c2cc3ccccc3o2)c1` (relative stereo): the outcome was inactive.

Consider `NC[C@H]1C[C@@H]1c1cccc(C#CCCCCO)c1` (relative stereo), for which the result was inactive.

As for `NC[C@H]1C[C@@H]1c1ccc(-c2ccc(F)cc2)cc1` (relative stereo), the outcome was inactive.

For the molecule `NC[C@H]1C[C@@H]1c1ccc(-c2ccco2)cc1` (relative stereo), the outcome was inactive.

With `NC[C@H]1C[C@@H]1c1ccccc1C#CCCCCO` (relative stereo), the outcome was inactive.

For the molecule `NC[C@H]1C[C@@H]1c1ccccc1-c1ccc(F)cc1` (relative stereo), the outcome was inactive.

In the next test the target is T2, 5-hydroxytryptamine receptor 2B (Homo sapiens, UniProt P41595). Kind of test: Agonist activity at human 5HT2B receptor expressed in HEK293 cells assessed as calcium flux by FLIPR assay. The format is functional, cell-based.
T2 sequence (P41595 whole entry): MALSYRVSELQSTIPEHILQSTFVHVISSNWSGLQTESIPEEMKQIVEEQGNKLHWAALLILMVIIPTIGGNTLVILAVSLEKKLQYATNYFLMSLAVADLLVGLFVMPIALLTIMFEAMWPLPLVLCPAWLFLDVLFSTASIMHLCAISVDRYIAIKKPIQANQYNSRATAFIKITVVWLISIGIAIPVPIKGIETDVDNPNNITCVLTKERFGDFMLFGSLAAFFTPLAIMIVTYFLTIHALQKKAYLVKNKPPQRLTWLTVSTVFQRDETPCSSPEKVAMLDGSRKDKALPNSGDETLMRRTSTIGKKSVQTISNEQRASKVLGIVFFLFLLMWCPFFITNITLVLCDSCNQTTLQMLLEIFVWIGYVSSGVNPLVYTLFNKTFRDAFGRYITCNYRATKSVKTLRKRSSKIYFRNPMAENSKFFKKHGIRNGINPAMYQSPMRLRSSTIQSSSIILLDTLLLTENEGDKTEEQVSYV
Regarding `NC[C@H]1C[C@@H]1c1ccccc1`, the half-maximal effective concentration (EC50) was 37 nM.

On to `CN(C)[C@H]1C[C@@H]1c1ccccc1` (racemic), for which the outcome was inactive.

Regarding `CN[C@H]1C[C@@H]1c1ccccc1` (racemic), the result was inactive.

On to `c1ccc(CN[C@H]2C[C@@H]2c2ccccc2)cc1` (racemic), for which the result was inactive.

As to `N#Cc1ccc(-c2cccc([C@H]3C[C@@H]3CN)c2)cc1` (relative stereo), the outcome was inactive.

For `C#Cc1cccc([C@H]2C[C@@H]2CN)c1` (relative stereo), the EC50 stood at 185 nM.

Consider `NC[C@H]1C[C@@H]1c1cccc(-c2cc3ccccc3o2)c1` (relative stereo), for which the result was inactive.

As to `NC[C@H]1C[C@@H]1c1cccc(C#CCCCCO)c1` (relative stereo), the half-maximal effective concentration (EC50) amounted to 1740 nM.

As to `NC[C@H]1C[C@@H]1c1ccc(-c2ccc(F)cc2)cc1` (relative stereo), the concentration giving a half-maximal response (EC50) is over 1000 nM.

Consider `NC[C@H]1C[C@@H]1c1ccc(-c2ccco2)cc1` (relative stereo), for which the result was inactive.

`NC[C@H]1C[C@@H]1c1ccccc1C#CCCCCO` (relative stereo): the EC50 was 204 nM.

In the case of `NC[C@H]1C[C@@H]1c1ccccc1-c1ccc(F)cc1` (relative stereo), the 50% effective concentration (EC50) was over 1000 nM.

In the next test the target is T2, 5-hydroxytryptamine receptor 2B. Briefly: Agonist activity at human 5HT2B receptor expressed in HEK293 cells at 10 uM assessed as calcium flux by FLIPR assay relative to serotonin. The format is functional, cell-based.
For the molecule `NC[C@H]1C[C@@H]1c1ccccc1`, the Emax stood at 111%.

For the molecule `CN(C)[C@H]1C[C@@H]1c1ccccc1` (racemic), the Emax was -2%.

With `CN[C@H]1C[C@@H]1c1ccccc1` (racemic), the Emax was found to be 6%.

Consider `c1ccc(CN[C@H]2C[C@@H]2c2ccccc2)cc1` (racemic), for which the Emax was -1%.

For `N#Cc1ccc(-c2cccc([C@H]3C[C@@H]3CN)c2)cc1` (relative stereo), the Emax is under 12%.

On to `C#Cc1cccc([C@H]2C[C@@H]2CN)c1` (relative stereo), for which the Emax was found to be 84%.

With `NC[C@H]1C[C@@H]1c1cccc(-c2cc3ccccc3o2)c1` (relative stereo), the Emax was under 12%.

For the molecule `NC[C@H]1C[C@@H]1c1cccc(C#CCCCCO)c1` (relative stereo), the Emax was found to be 17%.

Regarding `NC[C@H]1C[C@@H]1c1ccc(-c2ccc(F)cc2)cc1` (relative stereo), the Emax came to 10%.

`NC[C@H]1C[C@@H]1c1ccc(-c2ccco2)cc1` (relative stereo): the Emax is under 12%.

With `NC[C@H]1C[C@@H]1c1ccccc1C#CCCCCO` (relative stereo), the Emax was determined as 84%.

Turning to `NC[C@H]1C[C@@H]1c1ccccc1-c1ccc(F)cc1` (relative stereo), the Emax was found to be 43%.

For the next test, the target named is T3, 5-hydroxytryptamine receptor 2C (Homo sapiens) (UniProt P28335).
T3 sequence (whole entry): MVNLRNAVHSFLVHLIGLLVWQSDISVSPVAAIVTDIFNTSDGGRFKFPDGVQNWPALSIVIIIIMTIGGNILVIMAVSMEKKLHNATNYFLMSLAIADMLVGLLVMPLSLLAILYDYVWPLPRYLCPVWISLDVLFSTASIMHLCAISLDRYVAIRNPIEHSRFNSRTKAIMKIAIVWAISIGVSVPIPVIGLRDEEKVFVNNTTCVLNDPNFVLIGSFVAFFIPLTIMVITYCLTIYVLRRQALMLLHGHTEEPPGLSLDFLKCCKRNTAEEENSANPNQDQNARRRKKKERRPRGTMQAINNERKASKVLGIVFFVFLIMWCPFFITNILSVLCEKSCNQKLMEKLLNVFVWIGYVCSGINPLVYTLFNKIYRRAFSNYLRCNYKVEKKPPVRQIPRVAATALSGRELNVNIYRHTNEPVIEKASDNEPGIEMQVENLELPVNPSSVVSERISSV
Kind of test: (§1) Agonist activity at human 5HT2C receptor expressed in HEK293 cells assessed as calcium flux by FLIPR assay. It is filed as functional, cell-based.
Turning to `CN(C)[C@H]1C[C@@H]1c1ccccc1` (racemic), the outcome was inactive.

As for `CN[C@H]1C[C@@H]1c1ccccc1` (racemic), the result was inactive.

In the case of `c1ccc(CN[C@H]2C[C@@H]2c2ccccc2)cc1` (racemic), the outcome was inactive.

A further test deals with T4, 5-hydroxytryptamine receptor 2C (Homo sapiens, UniProt P28335).
T4 sequence (P28335 whole entry): T3 sequence (whole entry)
The test is described as §1. It is filed as functional, cell-based.
In the case of `NC[C@H]1C[C@@H]1c1ccccc1`, the EC50 was 5.2 nM.

`N#Cc1ccc(-c2cccc([C@H]3C[C@@H]3CN)c2)cc1` (relative stereo): the EC50 was over 1000 nM.

For the molecule `C#Cc1cccc([C@H]2C[C@@H]2CN)c1` (relative stereo), the EC50 is 136 nM.

On to `NC[C@H]1C[C@@H]1c1cccc(-c2cc3ccccc3o2)c1` (relative stereo), for which the EC50 is over 1000 nM.

`NC[C@H]1C[C@@H]1c1cccc(C#CCCCCO)c1` (relative stereo): the EC50 was determined as 332 nM.

For `NC[C@H]1C[C@@H]1c1ccc(-c2ccc(F)cc2)cc1` (relative stereo), the EC50 was over 1000 nM.

In the case of `NC[C@H]1C[C@@H]1c1ccc(-c2ccco2)cc1` (relative stereo), the half-maximal effective concentration (EC50) is 1200 nM.

On to `NC[C@H]1C[C@@H]1c1ccccc1C#CCCCCO` (relative stereo), for which the half-maximal effective concentration (EC50) was found to be 232 nM.

For the molecule `NC[C@H]1C[C@@H]1c1ccccc1-c1ccc(F)cc1` (relative stereo), the EC50 came out at 301 nM.

The next test concerns the target T3, 5-hydroxytryptamine receptor 2C (Homo sapiens). Briefly: Agonist activity at human 5HT2C receptor expressed in HEK293 cells at 10 uM assessed as calcium flux by FLIPR assay relative to serotonin. The format is functional, cell-based.
With `NC[C@H]1C[C@@H]1c1ccccc1`, the Emax worked out at 108%.

Consider `CN(C)[C@H]1C[C@@H]1c1ccccc1` (racemic), for which the Emax was under 12%.

Consider `CN[C@H]1C[C@@H]1c1ccccc1` (racemic), for which the Emax was under 12%.

In the case of `c1ccc(CN[C@H]2C[C@@H]2c2ccccc2)cc1` (racemic), the Emax was under 12%.

As to `N#Cc1ccc(-c2cccc([C@H]3C[C@@H]3CN)c2)cc1` (relative stereo), the Emax was determined as 41%.

Turning to `C#Cc1cccc([C@H]2C[C@@H]2CN)c1` (relative stereo), the Emax was found to be 91%.

For `NC[C@H]1C[C@@H]1c1cccc(-c2cc3ccccc3o2)c1` (relative stereo), the Emax came out at 39%.

Take `NC[C@H]1C[C@@H]1c1cccc(C#CCCCCO)c1` (relative stereo): the Emax came to 79%.

As to `NC[C@H]1C[C@@H]1c1ccc(-c2ccc(F)cc2)cc1` (relative stereo), the Emax amounted to 45%.

Take `NC[C@H]1C[C@@H]1c1ccc(-c2ccco2)cc1` (relative stereo): the Emax was determined as 75%.

As for `NC[C@H]1C[C@@H]1c1ccccc1C#CCCCCO` (relative stereo), the Emax was 88%.

For `NC[C@H]1C[C@@H]1c1ccccc1-c1ccc(F)cc1` (relative stereo), the Emax came out at 74%.

In another test the target is Serotonin 2 receptors; 5-HT2a & 5-HT2c (Homo sapiens) (UniProt P28223+P28335). Briefly: Selectivity ratio of EC50 for human 5HT2A receptor to EC50 for human 5HT2C receptor.
Chain of Serotonin 2 receptors; 5-HT2a & 5-HT2c (Homo sapiens) (P28223 whole entry, looked up, one chain of several): as the sequence (P28223 whole entry) above
For the molecule `NC[C@H]1C[C@@H]1c1ccccc1`, the Ratio EC50 was determined as 268.

For `NC[C@H]1C[C@@H]1c1cccc(C#CCCCCO)c1` (relative stereo), the Ratio EC50 was over 30.

For the molecule `NC[C@H]1C[C@@H]1c1ccccc1C#CCCCCO` (relative stereo), the Ratio EC50 is over 43.

For a further test, the species on record is Homo sapiens. Briefly: Selectivity ratio of EC50 for human 5HT2B receptor to EC50 for human 5HT2C receptor.
As for `NC[C@H]1C[C@@H]1c1ccccc1`, the Ratio EC50 came to 7.2.

On to `C#Cc1cccc([C@H]2C[C@@H]2CN)c1` (relative stereo), for which the Ratio EC50 stood at 1.4.

Turning to `NC[C@H]1C[C@@H]1c1cccc(C#CCCCCO)c1` (relative stereo), the Ratio EC50 is over 1.

Regarding `NC[C@H]1C[C@@H]1c1ccccc1C#CCCCCO` (relative stereo), the Ratio EC50 was 0.88.

Regarding `NC[C@H]1C[C@@H]1c1ccccc1-c1ccc(F)cc1` (relative stereo), the Ratio EC50 was over 3.
